Experiments:
Type in all cases: functional
Conditions in all cases: read-out: GI
CCRF-CEM = experiment: Growth inhibition of human CCRF-CEM cells at 10 uM incubated for 48 hrs by sulforhodamine B assay relative to control
K562 = experiment: Growth inhibition of human K562 cells at 10 uM incubated for 48 hrs by sulforhodamine B assay relative to control
RPMI-8226 = experiment: Growth inhibition of human RPMI-8226 cells at 10 uM incubated for 48 hrs by sulforhodamine B assay relative to control
A549 = experiment: Growth inhibition of human A549/ATCC cells at 10 uM incubated for 48 hrs by sulforhodamine B assay relative to control
HOP-92 = experiment: Growth inhibition of human HOP-92 cells at 10 uM incubated for 48 hrs by sulforhodamine B assay relative to control
NCI-H226 = experiment: Growth inhibition of human NCI-H226 cells at 10 uM incubated for 48 hrs by sulforhodamine B assay relative to control
NCI-H23 = experiment: Growth inhibition of human NCI-H23 cells at 10 uM incubated for 48 hrs by sulforhodamine B assay relative to control
NCI-H322M = experiment: Growth inhibition of human NCI-H322M cells at 10 uM incubated for 48 hrs by sulforhodamine B assay relative to control
NCI-H460 = experiment: Growth inhibition of human NCI-H460 cells at 10 uM incubated for 48 hrs by sulforhodamine B assay relative to control
NCI-H522 = experiment: Growth inhibition of human NCI-H522 cells at 10 uM incubated for 48 hrs by sulforhodamine B assay relative to control
COLO 205 = experiment: Growth inhibition of human COLO 205 cells at 10 uM incubated for 48 hrs by sulforhodamine B assay relative to control
HCC 2998 = experiment: Growth inhibition of human HCC 2998 cells at 10 uM incubated for 48 hrs by sulforhodamine B assay relative to control
HCT-116 = experiment: Growth inhibition of human HCT-116 cells at 10 uM incubated for 48 hrs by sulforhodamine B assay relative to control
HCT-15 = experiment: Growth inhibition of human HCT-15 cells at 10 uM incubated for 48 hrs by sulforhodamine B assay relative to control
HT-29 = experiment: Growth inhibition of human HT-29 cells at 10 uM incubated for 48 hrs by sulforhodamine B assay relative to control
KM12 = experiment: Growth inhibition of human KM12 cells at 10 uM incubated for 48 hrs by sulforhodamine B assay relative to control
SW-620 = experiment: Growth inhibition of human SW-620 cells at 10 uM incubated for 48 hrs by sulforhodamine B assay relative to control
SF-268 = experiment: Growth inhibition of human SF-268 cells at 10 uM incubated for 48 hrs by sulforhodamine B assay relative to control
SNB-19 = experiment: Growth inhibition of human SNB-19 cells at 10 uM incubated for 48 hrs by sulforhodamine B assay relative to control
SNB-75 = experiment: Growth inhibition of human SNB-75 cells at 10 uM incubated for 48 hrs by sulforhodamine B assay relative to control
LOX IMVI = experiment: Growth inhibition of human LOX IMVI cells at 10 uM incubated for 48 hrs by sulforhodamine B assay relative to control
M14 = experiment: Growth inhibition of human M14 cells at 10 uM incubated for 48 hrs by sulforhodamine B assay relative to control
MDA-MB-435 = experiment: Growth inhibition of human MDA-MB-435 cells at 10 uM incubated for 48 hrs by sulforhodamine B assay relative to control
SK-MEL-28 = experiment: Growth inhibition of human SK-MEL-28 cells at 10 uM incubated for 48 hrs by sulforhodamine B assay relative to control
SK-MEL-5 = experiment: Growth inhibition of human SK-MEL-5 cells at 10 uM incubated for 48 hrs by sulforhodamine B assay relative to control
UACC-257 = experiment: Growth inhibition of human UACC-257 cells at 10 uM incubated for 48 hrs by sulforhodamine B assay relative to control
UACC-62 = experiment: Growth inhibition of human UACC-62 cells at 10 uM incubated for 48 hrs by sulforhodamine B assay relative to control
IGROV-1 = experiment: Growth inhibition of human IGROV-1 cells at 10 uM incubated for 48 hrs by sulforhodamine B assay relative to control
OVCAR-3 = experiment: Growth inhibition of human OVCAR-3 cells at 10 uM incubated for 48 hrs by sulforhodamine B assay relative to control
OVCAR-4 = experiment: Growth inhibition of human OVCAR-4 cells at 10 uM incubated for 48 hrs by sulforhodamine B assay relative to control
OVCAR-5 = experiment: Growth inhibition of human OVCAR-5 cells at 10 uM incubated for 48 hrs by sulforhodamine B assay relative to control
NCI/ADR-RES = experiment: Growth inhibition of human NCI/ADR-RES cells at 10 uM incubated for 48 hrs by sulforhodamine B assay relative to control
SK-OV-3 = experiment: Growth inhibition of human SK-OV-3 cells at 10 uM incubated for 48 hrs by sulforhodamine B assay relative to control
786-0 = experiment: Growth inhibition of human 786-0 cells at 10 uM incubated for 48 hrs by sulforhodamine B assay relative to control
ACHN = experiment: Growth inhibition of human ACHN cells at 10 uM incubated for 48 hrs by sulforhodamine B assay relative to control
CAKI-1 = experiment: Growth inhibition of human CAKI-1 cells at 10 uM incubated for 48 hrs by sulforhodamine B assay relative to control
RXF 393 = experiment: Growth inhibition of human RXF 393 cells at 10 uM incubated for 48 hrs by sulforhodamine B assay relative to control
TK-10 = experiment: Growth inhibition of human TK-10 cells at 10 uM incubated for 48 hrs by sulforhodamine B assay relative to control
DU-145 = experiment: Growth inhibition of human DU-145 cells at 10 uM incubated for 48 hrs by sulforhodamine B assay relative to control
MCF7 = experiment: Growth inhibition of human MCF7 cells at 10 uM incubated for 48 hrs by sulforhodamine B assay relative to control
MDA-MB-231 = experiment: Growth inhibition of human MDA-MB-231 cells at 10 uM incubated for 48 hrs by sulforhodamine B assay relative to control
BT-549 = experiment: Growth inhibition of human BT-549 cells at 10 uM incubated for 48 hrs by sulforhodamine B assay relative to control
T47D = experiment: Growth inhibition of human T47D cells at 10 uM incubated for 48 hrs by sulforhodamine B assay relative to control

## O=C(Cn1ccnc1)Nc1ccc(-c2nc3ccccc3s2)cc1
CCRF-CEM
  inhibition of growth at 10 µM: 30.9%
K562
  inhibition of growth at 10 µM: 60.4%
RPMI-8226
  inhibition of growth at 10 µM: 48%
A549
  inhibition of growth at 10 µM: 29.7%
HOP-92
  inhibition of growth at 10 µM: 24.2%
NCI-H226
  inhibition of growth at 10 µM: 33.4%
NCI-H23
  inhibition of growth at 10 µM: 42.6%
NCI-H322M
  inhibition of growth at 10 µM: 1.71%
NCI-H460
  inhibition of growth at 10 µM: 20.2%
NCI-H522
  inhibition of growth at 10 µM: 25.3%
COLO 205
  inhibition of growth at 10 µM: 19.2%
HCC 2998
  inhibition of growth at 10 µM: 5.1%
HCT-116
  inhibition of growth at 10 µM: 31.9%
HCT-15
  inhibition of growth at 10 µM: 13%
HT-29
  inhibition of growth at 10 µM: 6.65%
KM12
  inhibition of growth at 10 µM: 15.6%
SW-620
  inhibition of growth at 10 µM: 0.17%
SF-268
  inhibition of growth at 10 µM: 18.9%
SNB-19
  inhibition of growth at 10 µM: 23.6%
SNB-75
  inhibition of growth at 10 µM: 11.2%
LOX IMVI
  inhibition of growth at 10 µM: 26.6%
M14
  inhibition of growth at 10 µM: 5.59%
MDA-MB-435
  inhibition of growth at 10 µM: 18.4%
SK-MEL-28
  inhibition of growth at 10 µM: -4.87%
SK-MEL-5
  inhibition of growth at 10 µM: 60.8%
UACC-257
  inhibition of growth at 10 µM: 32.4%
UACC-62
  inhibition of growth at 10 µM: 17.1%
IGROV-1
  inhibition of growth at 10 µM: 31.1%
OVCAR-3
  inhibition of growth at 10 µM: 37.8%
OVCAR-4
  inhibition of growth at 10 µM: 65.2%
OVCAR-5
  inhibition of growth at 10 µM: -3.81%
NCI/ADR-RES
  inhibition of growth at 10 µM: 11.8%
SK-OV-3
  inhibition of growth at 10 µM: 12.2%
786-0
  inhibition of growth at 10 µM: 22%
ACHN
  inhibition of growth at 10 µM: 9.7%
CAKI-1
  inhibition of growth at 10 µM: 33.8%
RXF 393
  inhibition of growth at 10 µM: -2.19%
TK-10
  inhibition of growth at 10 µM: 18.2%
DU-145
  inhibition of growth at 10 µM: 18.9%
MCF7
  inhibition of growth at 10 µM: 38.7%
MDA-MB-231
  inhibition of growth at 10 µM: 19.9%
BT-549
  inhibition of growth at 10 µM: 34.9%
T47D
  inhibition of growth at 10 µM: 48.6%
